Assay results from US7452865B2, “Antagonistic analogs of GH RH (2003)” (The Administrare's of the Tulane Educational Fund, priority 2004, dated 2008).
“And” between values parts separate entries of the source, which are not always exact repeats. Identical values can stand only once. Marks after values point to notes of the source that are not given here. Square brackets hold non-standard residues; d marks the D form. Peptide text beside a SMILES is read from it. * marks the point of attachment. Bpa = N[C@@H](Cc1ccc(C(=O)c2ccccc2)cc1)C(=O)O; Phe(4-Cl) = N[C@@H](Cc1ccc(Cl)cc1)C(=O)O; hArg = N=C(N)NCCCC[C@H](N)C(=O)O; Nle = CCCC[C@H](N)C(=O)O; Abu = CC[C@H](N)C(=O)O; PhAc = O=C(Cc1ccccc1)*

Experiments:
[1] = system: hGH-RH(1-29)NH2 induced GH release; test: Inhibition of GH release in superfused rat pituitary system; format: cell-based; details: for GH response (% of control) 0 min / GH response (% of control) 30 min / GH response (% of control) 60 min / GH response (% of control) 90 min / GH response (% of control) 120 min: antagonist 30 nM; for GH response (% of control) 0 min: 1 nM hGH-RH(1-29)NH2 at 0 min; for GH response (% of control) 30 min: 1 nM hGH-RH(1-29)NH2 at 30 min; for GH response (% of control) 60 min: 1 nM hGH-RH(1-29)NH2 at 60 min; for GH response (% of control) 90 min: 1 nM hGH-RH(1-29)NH2 at 90 min; for GH response (% of control) 120 min: 1 nM hGH-RH(1-29)NH2 at 120 min; for endocrine antagonistic potency: inhibition of the GH release stimulated by hGH-RH(1-29)NH2 (in words): general statement, in vitro and in vivo
Method: The analogs were tested in vitro in a test described earlier (S. Vigh and A. V Schally, Peptides 5:241-[…], 1984) with modification (Z. Rekasi and A. V. Schally, P.N.A.S. 90:2146-2149, 1993).
Briefly, the cells are preincubated with peptides for 9 minutes (3 mL) at various concentrations. Immediately after the incubation, 1 nM hGH-RH(1-29)NH2 is administered for 3 minutes (1 mL) 10 minute response). To check the duration of the antagonistic effect of the analogue, 1 nM hGH-RH(1-29)NH2 is applied 30, 60, 90, and 120 minutes later for 3 minutes [30, 60, 90, 120 min responses]. Net integral values of the GH responses are evaluated. GH responses are compared to and expressed as percent of the original GH response induced by 1 nM GH-RH(1-29)NH2 The effect of the new antagonists are compared to that of [Ac-Tyr^1, D-Arg^2]hGH-RH(1-29)NH2, the “Standard antagonist”.
Rat GH levels in aliquots of undiluted and diluted superfusion samples were measured by double-antibody radioimmunoassay using materials supplied by the National Hormone and Pituitary Program, Baltimore, Md. The results of RIA were analyzed with a computer program developed in our institute (V. Csernus and A. V. Schally, in Neuroendocrine Research Methods, Harwood Academic (Greenstein, B. D. ed., London, pp. 71-109, 1991), hereby incorporated by reference.

[2] = system: PC-3 human prostate cancer xenografts; test: PC-3 xenografts in nude mice, Experiment 3: tumor growth; format: in vivo
Method: Male nude mice were implanted s.c. with 3 mm^3 pieces of PC-3 human hormone-independent prostate cancer tissue on both flanks. When tumors reached a volume of approximately 65 mm^3, the mice were divided into 7 experimental groups with 8 to 9 animals in each group and received single daily injections for 28 days as follows: 1. Control (vehicle solution); 2. JV-1-38 (10 μg/day s.c.); 3. Peptide 35 (10 μg/day s.c.); 4. Peptide 36 (10 μg/day s.c.); 5. Peptide 37 (10 μd/day s.c.); 6. Peptide 39 (10 μg/day s.c.); 7. Peptide 41 (10 μg/day s.c.). Tumor volumes were measured twice a week. The experiment was ended on day 28 by sacrificing the mice under Isofurane anesthesia. Resulting tumors were cleaned, weighed, and snapfrozen until further analyses. Trunk blood was collected from the abdominal aorta and serum was separated for RIA measurement of IGF-I. Statistical analyses of the measurement results were done by ANOVA followed by Fisher test; data are presented as the means±S.E.

[3] = system: GH-RH receptor isoforms on membrane fractions of human PC-3 prostate tumors; format: binding; details: general statement
Text: Ligand competition assays with ^125I-labeled GH-RH antagonist JV-1-42 were used to determine the binding affinities of GH-RH analogs to the GH-RH receptor isoforms on membrane fractions of human PC-3 prostate tumors. The methods used have been described in detail (Halmos G, Schally A V, Varga J L, Plonowski A, Rekasi Z, Czompoly T, Proc Natl Acad Sci USA 97: 10555-10560, 2000; Halmos G, Schally A V, Czompoly T, Krupa M, Varga J L, Rekasi Z, J Clin Endocrinol Metab 87: 4707-4714, 2002), hereby incorporated by reference. Briefly, radioiodinated derivatives of JV-142 are prepared by the chloramine-T method. PC-3 tumors, grown as xenografts in nude mice, are used to prepare crude membranes. PC-3 membrane homogenates are incubated with [^125I]JV-142 and increasing concentrations (10^−12 to 10^−6 M) of nonradioactive antagonist peptides as competitors. The pellet is separated by centrifugation and counted for radioactivity in a gamma-counter. The final binding affinities are estimated by K1 (dissociation constant of the inhibitor-receptor complex) and are determined by the Ligand PC and McPherson computer programs of Munson and Rodbard (P. J. Munson and D. Rodbard, Anal. Biochem. […]: 220-239, 1980). Relative affinities (R.A.) compared to reference peptides such as JV-1-36 or JV-1-38, are calculated as the ratio of K1 of the reference peptide to the K, of the tested GH-RH antagonist.

[4] = 10 μg/day s.c., 28 days, vs control

| binding affinities to the tumoral receptors for GH-RH (in words) [3] | Molecule | GH response (% of control) 0 min [1] | GH response (% of control) 30 min [1] | GH response (% of control) 60 min [1] | GH response (% of control) 90 min [1] | GH response (% of control) 120 min [1] | endocrine antagonistic potency: inhibition of the GH release stimulated by hGH-RH(1-29)NH2 (in words) [1] | Tumor volume (mm^3) Final ([2]; 10 μg/day s.c., 28 days) | Tumor volume doubling time ([2]; 10 μg/day s.c., 28 days) | Tumor weight ([2]; 10 μg/day s.c., 28 days) | Tumor volume Final (% inhibition) [2, 4] | Tumor weight (% inhibition) [2, 4] | Tumor volume (mm^3) Initial ([2]; at start of treatment) |
| --- | --- | --- | --- | --- | --- | --- | --- | --- | --- | --- | --- | --- | --- |
| – | [PhAc-Tyr^1, D-Arg^2, Phe(pCl)^6, Har^9, Phe(pNH2)^10, Abu^15, Nle^27, D-Arg^28, Har^29]hGH-RH(1-29)NH2 [Peptide 37] | 33 % of control | 12 % of control | 15 % of control | 15 % of control | 19 % of control | high endocrine antagonistic potencies | 323 ± 68.0* mm^3 | 12.7 ± 2.03 days | 440 ± 104 mg | (57%) | (37%) | 60.0 ± 13.0 mm^3 |
| extremely high binding affinities | [CH3(CH2)6CO-Tyr^1, D-Arg^2, Phe(pCl)^6, Ala^8, His^9, Tyr(Et)^10, His^11, Abu^15, Nle^27, D-Arg^28, Har^29]hGH-RH(1-29)NHEt [Peptide 97] | – | – | – | – | – | – | – | – | – | – | – | – |
| – | [PhAc-D-Arg^0, D-Arg^2, Phe(pCl)^6, Arg^9, Abu^15, Nle^27, D-Arg^28, Har^29]hGH-RH(1-29)NH2 [Peptide 19] | 62 % of control | 64 % of control | 66 % of control | 82 % of control | 74 % of control | – | – | – | – | – | – | – |
| – | [CH3(CH2)12CO-Tyr^1, D-Arg^2, Phe(pCl)^6, Arg^9, Abu^15, Nle^27, D-Arg^28, Har^29]hGH-RH(1-29)NH2 [Peptide 10] | 60 % of control | 30 % of control | 36 % of control | 37 % of control | 44 % of control | – | – | – | – | – | – | – |
| – | [PhAc-Tyr^1, D-Arg^2, Phe(pCl)^6, Har^9, Tyr(Me)^10, Abu^15, Nle^27, D-Arg^28, Har^29, Agm^30]hGH-RH(1-30) [Peptide 60] | 73 % of control and 87 % of control | 27 % of control and 29 % of control | 34 % of control and 65 % of control | 56 % of control and 36 % of control | 42 % of control and 63 % of control | – | – | – | – | – | – | – |
| – | [HOOC(CH2)4CO-Tyr^1, D-Arg^2, Phe(pCl)^6, Arg^9, Abu^15, Nle^27, D-Arg^28, Har^29]hGH-RH(1-29)NH2 [Peptide 3] | 52 % of control | 61 % of control | 56 % of control | 70 % of control | 149 % of control | – | – | – | – | – | – | – |
| – | [PhAc-Tyr^1, D-Arg^2, Phe(pCl)^6, Har^9, Tyr(Me)^10, Orn^12, Abu^15, Nle^27, D-Arg^28, Har^29]hGH-RH(1-29)NHEt [Peptide 50] | 57 % of control | 65 % of control | 69 % of control | 74 % of control | 67 % of control | – | – | – | – | – | – | – |
| – | CCCC[C@H](NC(=O)[C@@H](NC(=O)[C@H](CC(=O)O)NC(=O)[C@H](CCC(N)=O)NC(=O)[C@H](CC(C)C)NC(=O)[C@H](CC(C)C)NC(=O)[C@H](CCCCN)NC(=O)[C@H](CCCNC(=N)N)NC(=O)[C@H](C)NC(=O)[C@H](CO)NC(=O)[C@H](CC(C)C)NC(=O)[C@H](CCC(N)=O)NC(=O)[C@H](CC)NC(=O)[C@H](CC(C)C)NC(=O)[C@@H](NC(=O)[C@H](CCCCNC(=N)N)NC(=O)[C@H](CCCNC(=N)N)NC(=O)[C@H](Cc1ccc(O)cc1)NC(=O)[C@H](CCCNC(=N)N)NC(=O)[C@H](CC(N)=O)NC(=O)[C@@H](NC(=O)[C@H](Cc1ccc(Cl)cc1)NC(=O)[C@@H](NC(=O)[C@H](C)NC(=O)[C@H](CC(=O)O)NC(=O)[C@@H](CCCNC(=N)N)NC(=O)[C@H](Cc1ccc(O)cc1)NC(=O)Cc1ccccc1)[C@@H](C)CC)[C@@H](C)O)C(C)C)[C@@H](C)CC)C(=O)N[C@H](CCCNC(=N)N)C(=O)N[C@@H](CCCCNC(=N)N)C(N)=O [Peptide 43, [PhAc-Tyr^1, D-Arg^2, Phe(pC)^6, Arg^9, Har^12, Abu^15, Nle^27, D-Arg^28, Har^29]hGH-RH(1-29)NH2] (PhAc-Y[dR]DAI[Phe(4-Cl)]TNRYR[hArg]VL[Abu]QLSARKLLQDI[Nle][dR][hArg]-NH2) | 82 % of control | 74 % of control | 102 % of control | 72 % of control | 51 % of control | – | – | – | – | – | – | – |
| – | CCCC[C@H](NC(=O)[C@@H](NC(=O)[C@H](CC(=O)O)NC(=O)[C@H](CCC(N)=O)NC(=O)[C@H](CC(C)C)NC(=O)[C@H](CC(C)C)NC(=O)[C@H](CCCCN)NC(=O)[C@H](CCCNC(=N)N)NC(=O)[C@H](C)NC(=O)[C@H](CO)NC(=O)[C@H](CC(C)C)NC(=O)[C@H](CCC(N)=O)NC(=O)[C@H](CC)NC(=O)[C@H](CC(C)C)NC(=O)[C@@H](NC(=O)[C@H](CCCCN)NC(=O)[C@H](CCCNC(=N)N)NC(=O)[C@H](Cc1ccc(C(=O)c2ccccc2)cc1)NC(=O)[C@H](CCCCNC(=N)N)NC(=O)[C@H](CC(N)=O)NC(=O)[C@@H](NC(=O)[C@H](Cc1ccc(O)cc1)NC(=O)[C@@H](NC(=O)[C@H](C)NC(=O)[C@H](CC(=O)O)NC(=O)[C@@H](CCCNC(=N)N)NC(=O)[C@H](Cc1c[nH]cn1)NC(=O)Cc1ccccc1)[C@@H](C)CC)[C@@H](C)O)C(C)C)[C@@H](C)CC)C(=O)N[C@H](CCCNC(=N)N)C(=O)N[C@@H](CCCCNC(=N)N)C(N)=O [Peptide 42, [PhAc-His^1, D-Arg^2, Tyr^6, Har^9, Bpa^10, Abu^15, Nle^27, D-Arg^28, Har^29]hGH-RH(1-29)NH2] (PhAc-H[dR]DAIYTN[hArg][Bpa]RKVL[Abu]QLSARKLLQDI[Nle][dR][hArg]-NH2) | 52 % of control | 7 % of control | 9 % of control | 8 % of control | 13 % of control | high endocrine antagonistic potencies | – | – | – | – | – | – |
